Assay results taken from patent US11959083B2, “Immunosuppression-reverting oligonucleotides inhibiting the expression of CD39” (Secarna Pharmaceuticals GmbH & Co. KG, priority 2016, dated 2024).
l = locked nucleic acid (LNA); d = 2'-deoxy (DNA)

What was measured:
hCD39 = biological target: T1, hCD39 (Homo sapiens, UniProt P49961); experiment: ATP degradation in JIYOYE cells after hCD39 knockdown (ATP Bioluminescence Assay); format: cell-based; details: for Relative ATP levels in supernatants of JIYOYE cells 30 minutes after addition of ATP (vs. Medium control): 5 μM oligonucleotide 6 days or 20 μM ARL67156 1 h, 2 μM ATP added
T1 construct: endogenous in cells; host or cells: JIYOYE cells
T1 sequence (P49961 1-510): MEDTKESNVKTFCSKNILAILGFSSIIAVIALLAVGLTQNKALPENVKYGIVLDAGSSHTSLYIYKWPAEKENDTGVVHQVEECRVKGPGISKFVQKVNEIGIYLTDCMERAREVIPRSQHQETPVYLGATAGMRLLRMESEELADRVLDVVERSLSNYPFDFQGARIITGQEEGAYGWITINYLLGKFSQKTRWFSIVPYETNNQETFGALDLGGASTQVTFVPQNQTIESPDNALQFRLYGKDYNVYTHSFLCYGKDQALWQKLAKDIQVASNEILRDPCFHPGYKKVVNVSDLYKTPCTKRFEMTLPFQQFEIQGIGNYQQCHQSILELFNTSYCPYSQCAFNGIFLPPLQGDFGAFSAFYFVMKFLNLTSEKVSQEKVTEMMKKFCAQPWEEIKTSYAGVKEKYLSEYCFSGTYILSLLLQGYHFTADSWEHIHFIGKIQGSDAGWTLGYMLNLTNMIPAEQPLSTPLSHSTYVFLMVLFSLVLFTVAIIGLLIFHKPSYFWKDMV
Protocol: FIG. 10A-10C depict effects of hCD39 knockdown on viability and ATP concentration in JIYOYE cells. JIYOYE cells were treated with the indicated antisense oligonucleotide A04040H (SEQ ID No.3) or neg1 for 6 days in total at 5 μM. Medium was replaced with fresh oligonucleotide-containing medium after 3 days and hCD39 protein knockdown efficacy was analyzed on day 6 by flow cytometry. Residual hCD39 expression and viability of oligonucleotide-treated cells is depicted compared to untreated cells (FIG. 10A-10B). After 6 days, 20 μM of the CD39 small molecular inhibitor ARL67156 trisodium salt was added to no ASO treated cells and incubated for 1 h at 37° C. Then, 2 μM of ATP was added to cells or cell culture medium without cells from each condition and ATP concentration of cell supernatants or cell culture medium was determined after 30 min using the ATP Bioluminescence Assay Kit (Roche) (FIG. 10C).
Adenosine is one major immunosuppressive molecule generated during ATP degradation by hCD39. ATP can be detected by an ATP Bioluminescence Assay (ATP Bioluminescence Assay Kit CLS II; Roche). JIYOYE cells were treated with 5 μM antisense oligonucleotide A04040H (SEQ ID No. 3) or the negative control oligonucleotide neg1 for 6 days (3+3). After 3 days, RPMI-1640 medium was replaced with fresh RPMI-1640 medium containing 5 μM of oligonucleotide. Protein knockdown efficacy (FIG. 10A) and viability (FIG. 10B) were analyzed after 6 days by flow cytometry. […] The same day, cells that were not treated with any antisense oligonucleotide were incubated for 1 hr at 37° C. with 20 μM of the CD39 small molecular inhibitor ARL67156 trisodium salt (TOCRIS). Then, 2 μM of ATP was added to cells or cell culture medium without cells derived from each condition and ATP concentration was measured in the cell supernatants or in cell culture medium after 30 min. […] Table 14 presents the effect of hCD39 knockdown on relative ATP levels in the cell culture supernatants of JIYOYE cells: […]

hCD39 mRNA = hCD39 mRNA knockdown efficacy screen in HDLM-2 cells (single dose, gymnotic delivery, QuantiGene Singleplex); format: cell-based, human; details: 10 μM; for Mean hCD39 mRNA expression normalized to HPRT1 relative to untreated control = 1: first screening round; for Relative hCD39 mRNA expression (compared to non-treated cells): second screening round, normalized to HPRT1
Procedure, shortened: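 Antisense oligonucleotides given once at 10 μM without transfection reagent (gymnotic) to HDLM-2 or A-172 cells for 3 days. hCD39 mRNA measured by QuantiGene Singleplex, normalized to HPRT1 and expressed relative to untreated cells; triplicate means.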

[1] = JIYOYE cells, 5 μM, 6 days, 2 μM ATP, 30 min

Substance	Relative ATP levels in supernatants of JIYOYE cells 30 minutes after addition of ATP (vs. Medium control) (hCD39)	influence on the expression of hCD39 (hCD39 mRNA)	Mean hCD39 mRNA expression normalized to HPRT1 relative to untreated control = 1 (hCD39 mRNA; 3 days)	Relative hCD39 mRNA expression (compared to non-treated cells) (hCD39 mRNA; 3 days)	ATP concentration compared to cells treated with ARL67156 (hCD39; [1])	ATP concentration compared to cells treated with neg 1 (hCD39; [1])	ATP degradation efficacy (hCD39; [1])	Residual hCD39 mRNA expression relative to untreated cells (set as 1) (hCD39 mRNA; 3 days, third screening round)
+C*+G*+T*T*T*A*G*G*C*T*A*T*G*T*A*+C*+T*+T (CGTTTAGGCTATGTACTT; chemistry not fully specified) [neg1, negative control antisense oligonucleotide not hybridizing with CD39, described in WO2014154843 A1, reference compound]	0.19	no negative influence on the expression of hCD39	1.09	1.09	–	–	–	–
+G*+T*+T*T*G*T*G*T*G*A*G*A*G*C*+T*+T (antisense GTTTGTGTGAGAGCTT; sugars from the 5' end l3 d11 l2, all phosphorothioate, methylation of C not given here) [A04040H]	0.76	–	0.08	0.06	2 ×	about 4 ×	nearly abolished	0.01
